One molecule from patent US9969698B2, “Quinoxalinyl-piperazinamide methods of use” (REXAHN PHARMACEUTICALS, INC., priority 2015, dated 2018) can be followed below.

A short description of data set [1]: Solid state characterisation of Form 1. The conditions noted are these: crystalline solid. The format is physicochemical. An excerpt:
A batch of RX-5902 was characterized by various solid state techniques. The supplied material was a crystalline solid, denoted as Form 1.

The next data set concerns WI-38 cells. The experiment in a line: Western blot of cyclin D1, c-Myc and p-c-Jun. It is filed as cell-based. The conditions noted are these: even at 70 nM. The procedure:
(§1) MDA-MB-231, SK-MEL-28, and WI-38 cells were obtained from ATCC (Manassas, Va., USA) and were cultured according to the vendor's instructions. Anti-p68 antibody and antiY593-p68 antibody were purchased from Cell Signaling (Danvers, Mass.) and Abcam (Cambridge, Mass.), respectively. Antibodies against β-actin, cyclin D1, p-c-Jun and c-Myc, were purchased from Santa Cruz (Dallas, Tex.). Anti-phospho-tyrosine antibody and HRP conjugated GAPDH antibody were obtained from Cell Signaling (Danvers, Mass.). Recombinant β-catenin and p68 protein were purchased from Creative Biomart (Shirley, N.Y.) and Origene (Rockville, Md.), respectively.
(§2) RX-5902 was dissolved in DMSO to prepare a stock solution of 2 mM. The stock solution was stored at −20° C. and diluted with medium to prepare working concentrations.
(§3) Protein mix or cell lysates were separated by SDS-PAGE and transferred to PVDF membrane. The membrane was blocked by blocking buffer (1×TBST containing 5% BSA) at room temperature for 1 hour. After a brief wash, the membrane was incubated with primary antibody in blocking buffer at 4° C. overnight. After incubation in primary antibody, the membrane was washed with 1×TBST three times and subsequently incubated with HRP conjugated secondary antibody in blocking buffer at room temperature for 1 hour. The membrane was again washed three times and visualized by ECL system (Thermo Scientific, Rockford, Ill.).
(§4) Since RX-5902 directly binds to Y593 phospho-p68, it was hypothesized that treatment of cells with RX-5902 would interfere with the phospho-p68/β-catenin interaction and consequently affect the expression of several growth associated genes, including p-c-Jun, c-Myc and cyclin D, which are regulated by phospho-p68/β-catenin interaction. Thus, cyclin D1 and c-Myc expression, as well as phosphorylation of c-Jun in cells treated with RX-5902, were analyzed. Cancer cell lines, SK-MEL-28 and MDA-MB-231, and normal fetal lung fibroblasts, WI-38, were used.
On the technique in general: A western blot detects proteins with antibodies after separation by electrophoresis.

Another data set deals with SK-MEL-28 cells. The experiment in a line: Western blot of cyclin D1, c-Myc and p-c-Jun. It is filed as cell-based. The procedure: as §1, §2, §3, §4
The test system of data set [2] is human pancreas tumor xenografts (MiaPaca-2). Description: Pancreatic cancer xenograft model. It is filed as in vivo, mice. The conditions noted are these: oral, 5ON/2OFF. From the text:
The efficacy of RX-5902 in human cancer xenograft mouse models is examined. Female nude mice (nu/nu, Harlan or CRL: NU(NCr)-Foxn1^nu, Charles River), 9-10 weeks old, with a body weight (BW) range of 15-30 g on day 1 of the study, are fed ad libitum water (reverse osmosis, 1 ppm C1), and NIH 31 Modified and Irradiated Lab Diet® consisting of 18.0% crude protein, 5.0% crude fat, and 5.0% crude fiber. The mice are housed on irradiated Enrich-o'Cobs™ Laboratory Animal Bedding in static microisolators on a 12-hour light cycle at 20-22° C. (68-72° F.) and 40-60% humidity. […]
The cells are harvested during exponential growth and re-suspended with phosphate buffered saline. Each test animal receives a subcutaneous (s.c.) injection of 5×10^6 tumor cells into the right flank and tumor growth is monitored as the average tumor size approaches the target range of 80-300 mm^3. […] Tumors and body weights are measured regularly until the study is terminated.
Tumors are measured in two dimensions using calipers, and volume is calculated using the formula: […]
Treatment efficacy is determined using data from Day 15. The MTV (n), the median tumor volume for the number of animals, n, on Day 15, is determined for each group. […]
Animals are monitored individually for tumor growth until Day 71. […] The time to endpoint (TTE) for each mouse is calculated with the following equation: […]

As to `COc1cc(OC)cc(N2CCN(C(=O)Nc3nc4cc(F)ccc4nc3OC)CC2)c1` [RX-5902, 4-(3,5-dimethoxyphenyl)-N-(7-fluoro-3-methoxyquinoxalin-2-yl)piperazine-1-carboxamide], the hygroscopicity result in data set [1] was “non-hygroscopic”. In addition, the stability to humidity result in data set [1] is recorded as “stable to exposure to humidity”. In addition, the “cyclin D1, c-Myc expression and c-Jun phosphorylation” value in the data set with WI-38 cells is “did not result in any significant change”; with SK-MEL-28 cells (70 nM), “decrease in expression of both cyclin D1 and c-Myc and a decrease in c-Jun phosphorylation”. Also, in the data set with SK-MEL-28 cells (20 nM), the “cyclin D1, c-Myc and p-c-Jun protein levels” value was “did not change protein levels”. Also, the TGD % amounted to 83%^ in data set [2] (50 mg/kg) and 339%^ in data set [2] (70 mg/kg).
